This note sets out measurements from patent publication US20240059704A1, “Cereblon Ligands and Uses Thereof” (REGENTS OF THE UNIVERSITY OF MICHIGAN, priority 2022, published 2024).

Structures can show the parent of a compound that is named as a salt.

The target in one experiment is CRBN/DDB1 (Homo sapiens (Human), UniProt Q96SW2). The note with it: HTRF, His tagged CRBN+DDB-DLS7+CXU4, Cy5-labeled Thalidomide probe; read-out: CRBN Binding IC50. On the procedure: The binding potency was determined using HTRF assay technology (Perkin Elmer). Compounds were serially diluted in DMSO and 0.2 μL volume was transferred to white 384-well plate.
(In general: TR-FRET usually uses a lanthanide donor and a delayed reading to cut background.)

Experiment [1] deals with wild-type human CRBN protein (Homo sapiens (Human), UniProt Q96SW2). The experiment in a line: Cereblon Binding Assay (Cisbio Cereblon Binding Kit, TR-FRET). The following applies: GST-tagged wild-type human CRBN, XL665-labelled Thalidomide. On the procedure: The binding to cereblon (CRBN) was determined using the Cereblon Binding Kit (Cisbio, #64BDCRBNPEG) following the manufacturer's instruction. Briefly, serially diluted compounds were incubated with GST-tagged wild-type human CRBN protein, XL665-labelled Thalidomide and Europium Cryptate labelled GST antibody at room temperature for about 3 hours. Time Resolved Fluorescence Resonance Energy Transfer (TR-FRET) measurements were acquired on a CALRIOstar plate reader with MARS data analysis software (BMG Labtech), with the following settings: 665/10 nm and 620/10 nm emission, 60 […]. The TR-FRET ratio was taken as the 665/620 nm intensity ratio.

The next experiment deals with ER (Homo sapiens (Human), UniProt P03372). The experiment in a line: In-cell western blot analysis (ICW), relative ER percentage in treated cells. It is filed as cell-based. The note with it: ER degradation, 16 hours. On the procedure: In-cell western blot analysis. Cells are seeded in multi-well plates (e.g., at 40,000 or 10,000 cells/well). Diluted compounds at certain concentration are added (final 0.5% DMSO) and cells are incubated for certain period of time (e.g., 16 hours). Formaldehyde (e.g., PBS:FA=9:1) is added and followed by washing with PBS. The cells are blocked with Licor blocking buffer (Li-Cor). The relative ER percentage in treated cells were obtained by comparing the values of treated wells to those in untreated and DMSO-treated wells as 100%.
In-cell western blot analysis. a. seed cells in black-sided/clear bottom 96- or 384-well plates at 40,000 or 10,000 cells/well, overnight; b. add diluted compounds (final 0.5% DMSO), 16 hours. 16 h later, remove medium, add 100 μL or 25 μL of 3.7-4.0% formaldehyde (PBS:FA=9:1), RT 20 min, no shaking; c. wash with PBS, and permeabilized with 100 μL or 25 μL/well of 1×PBS+0.1% Triton X-100 10 minutes; d. block with 100 μL or 25 μL Licor blocking buffer (Li-Cor), RT 1h, moderate shaking; d. Add 100 μL or 25 μL of anti-ER (cs-8644, 1:500-1,000)+GAPDH (Millipore MAB374, 1:1000) in Block+0.05% Tween 20. RT 2h, gentle shaking. Negative control: cells plus secondary antibodies (no primary antibodies); e. wash×4 with PBS+0.05-0.1% Tween 20, gentel shaking; f. anti-rabbit-680 and anti-mouse-800 (both 1:1000 in LiCor block+0.05% Tween20, RT 1h, gentle shaking, no light. LI-COR: 0.2% to reduce background; g. wash×4 with PBS+0.05% Tween 20, gental shaking; h. add 100 μL or 25 μL of PBS to each well and read on CLX plate reader. The relative ER percentage in treated cells were obtained by comparing the values of treated wells to those in untreated and DMSO-treated wells as 100%.

The next experiment deals with T47D cell line. The experiment in a line: Cell growth inhibition in T47D cell line. It counts as cell-based. The following applies: Homo sapiens, μM, class key in nM. On the procedure: Cell Growth Assay. The cells were seeded at certain concentration (e.g., at 1500/well) in multi-well plates overnight. Cells are subsequently treated with the compounds. A certain period of time (e.g., 4 days) after the compound treatment, 10% WST-8 reagent was added to the culture medium and incubate under certain condition (e.g., in a CO2 incubator at 37° C. for 2.5 hours). The absorbance is measured on each sample using a microplate reader at certain wavelength (e.g., 450 nm). The relative absorbance is calculated against the vehicle control from three individually repeats.

By IC50 is commonly meant the point on the concentration scale where inhibition reaches its midpoint. In general, DC50 refers to the concentration at which degradation of the target reaches its halfway point.

Chain of CRBN/DDB1 (Q96SW2 whole entry): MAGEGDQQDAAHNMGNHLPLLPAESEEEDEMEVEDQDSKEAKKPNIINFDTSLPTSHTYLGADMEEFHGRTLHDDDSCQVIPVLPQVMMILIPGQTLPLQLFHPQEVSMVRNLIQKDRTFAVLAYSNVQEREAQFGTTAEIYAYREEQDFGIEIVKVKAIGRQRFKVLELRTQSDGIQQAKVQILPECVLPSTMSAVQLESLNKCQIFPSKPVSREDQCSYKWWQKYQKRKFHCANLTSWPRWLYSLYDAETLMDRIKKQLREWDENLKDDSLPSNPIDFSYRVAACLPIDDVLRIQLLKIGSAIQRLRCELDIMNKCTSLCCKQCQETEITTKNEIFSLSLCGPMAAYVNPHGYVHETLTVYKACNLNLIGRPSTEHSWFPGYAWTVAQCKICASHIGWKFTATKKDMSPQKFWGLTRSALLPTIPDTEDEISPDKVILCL
Chain of CRBN/DDB1 (Q16531 whole entry partner): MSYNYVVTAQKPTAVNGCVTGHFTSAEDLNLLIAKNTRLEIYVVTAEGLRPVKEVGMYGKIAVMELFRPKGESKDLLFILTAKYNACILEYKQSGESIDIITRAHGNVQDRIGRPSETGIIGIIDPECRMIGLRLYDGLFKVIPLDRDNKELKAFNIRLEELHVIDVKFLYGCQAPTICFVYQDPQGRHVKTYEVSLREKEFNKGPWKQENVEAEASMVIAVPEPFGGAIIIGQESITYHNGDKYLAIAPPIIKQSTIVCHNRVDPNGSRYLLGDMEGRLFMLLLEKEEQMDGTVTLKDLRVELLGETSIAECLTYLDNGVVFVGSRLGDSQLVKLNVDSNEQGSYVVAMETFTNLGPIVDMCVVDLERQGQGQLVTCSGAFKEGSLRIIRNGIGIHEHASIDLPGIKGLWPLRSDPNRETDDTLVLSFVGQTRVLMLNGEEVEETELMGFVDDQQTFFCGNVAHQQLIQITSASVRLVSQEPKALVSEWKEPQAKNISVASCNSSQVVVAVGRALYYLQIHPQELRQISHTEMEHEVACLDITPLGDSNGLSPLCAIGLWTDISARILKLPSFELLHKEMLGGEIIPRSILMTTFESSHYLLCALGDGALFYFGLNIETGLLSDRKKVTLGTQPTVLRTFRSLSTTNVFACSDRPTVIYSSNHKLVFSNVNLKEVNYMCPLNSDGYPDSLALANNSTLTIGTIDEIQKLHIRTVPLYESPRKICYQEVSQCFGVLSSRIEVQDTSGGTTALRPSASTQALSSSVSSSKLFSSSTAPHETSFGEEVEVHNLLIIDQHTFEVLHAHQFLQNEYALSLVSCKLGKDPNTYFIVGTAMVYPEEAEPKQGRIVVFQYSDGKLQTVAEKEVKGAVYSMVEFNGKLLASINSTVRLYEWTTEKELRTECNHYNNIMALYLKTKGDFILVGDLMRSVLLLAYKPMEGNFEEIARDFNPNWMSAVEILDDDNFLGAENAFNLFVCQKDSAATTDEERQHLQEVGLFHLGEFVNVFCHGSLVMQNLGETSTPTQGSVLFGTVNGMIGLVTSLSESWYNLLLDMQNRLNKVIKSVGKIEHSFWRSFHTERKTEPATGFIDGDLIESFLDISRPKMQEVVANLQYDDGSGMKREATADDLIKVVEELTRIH
Chain of wild-type human CRBN protein (Q96SW2 whole entry): as the sequence (Q96SW2 whole entry) above
Chain of ER (P03372 whole entry): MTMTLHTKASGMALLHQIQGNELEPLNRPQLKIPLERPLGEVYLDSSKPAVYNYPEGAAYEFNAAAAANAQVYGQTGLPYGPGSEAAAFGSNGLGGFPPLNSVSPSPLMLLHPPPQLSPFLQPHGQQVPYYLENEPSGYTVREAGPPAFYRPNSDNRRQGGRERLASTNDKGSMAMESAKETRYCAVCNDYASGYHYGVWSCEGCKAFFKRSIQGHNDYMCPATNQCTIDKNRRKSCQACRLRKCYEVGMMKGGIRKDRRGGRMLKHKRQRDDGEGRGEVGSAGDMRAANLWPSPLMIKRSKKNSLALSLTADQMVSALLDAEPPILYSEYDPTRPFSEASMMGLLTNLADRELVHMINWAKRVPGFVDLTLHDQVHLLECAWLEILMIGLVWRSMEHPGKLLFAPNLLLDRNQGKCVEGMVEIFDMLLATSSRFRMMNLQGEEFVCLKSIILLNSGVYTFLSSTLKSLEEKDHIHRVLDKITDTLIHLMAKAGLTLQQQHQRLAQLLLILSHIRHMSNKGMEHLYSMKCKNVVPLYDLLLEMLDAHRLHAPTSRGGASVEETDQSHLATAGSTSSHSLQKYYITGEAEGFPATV

For `O=C1CCC(N2Cc3c(ccc4c3OC3(C=C4)CCNCC3)C2=O)C(=O)N1` (stereo not drawn) [Compound A1, 3-(7′-oxo-7′,9′-dihydro-8′H-spiro[piperidine-4,2′-pyrano[2,3-e]isoindol]-8′-yl)piperidine-2,6-dione], the concentration for half-maximal inhibition (IC50) at CRBN/DDB1 worked out at 1100 nM.
`O=C1CCC(N2Cc3c(ccc4c3OC3(CCNCC3)CC4)C2=O)C(=O)N1` (stereo not drawn) [Compound A2, 3-(7′-oxo-3′,4′,7′,9′-tetrahydro-8′H-spiro[piperidine-4,2′-pyrano[2,3-e]isoindol]-8′-yl)piperidine-2,6-dione]: at CRBN/DDB1, the half-inhibitory concentration (IC50) came to 620 nM.
On the same count and under the same terms, the value for `O=C1CCC(N2Cc3c(ccc4c3OC3(C=C4)CNC3)C2=O)C(=O)N1` (stereo not drawn) [Compound A3, 3-(7′-oxo-7′,9′-dihydro-8′H-spiro[azetidine-3,2′-pyrano[2,3-e]isoindol]-8′-yl)piperidine-2,6-dione hydrochloride] was 1300 nM.
Still for that read-out and setting: the result for `O=C1CCC(N2Cc3c(ccc4c3OC3(CC4)CNC3)C2=O)C(=O)N1` (stereo not drawn) [Compound A4, 3-(7′-oxo-3′,4′,7′,9′-tetrahydro-8′H-spiro[azetidine-3,2′-pyrano[2,3-e]isoindol]-8′-yl)piperidine-2,6-dione hydrochloride] reads 5200 nM.
With `O=C1CC[C@H](N2Cc3c(ccc4c3OCC3(CCNCC3)O4)C2=O)C(=O)N1` [Compound B1, (S)-3-(7′-oxo-7′,9′-dihydro-2′H,8′H-spiro[piperidine-4,3′-[1,4]dioxino[2,3-e]isoindol]-8′-yl)piperidine-2,6-dione], the IC50 in experiment [1] worked out at 330 nM.
On the same count and under the same terms, the value for `O=C1CCC(N2Cc3c(ccc4c3OCC3(CNC3)O4)C2=O)C(=O)N1` (stereo not drawn) [Compound B2, 3-(7′-oxo-7′,9′-dihydro-2′H,8′H-spiro[azetidine-3,3′-[1,4]dioxino[2,3-e]isoindol]-8′-yl)piperidine-2,6-dione] was 259 nM; that for `O=C1CC[C@H](N2Cc3cc4c(c(F)c3C2=O)OCC2(CCNCC2)O4)C(=O)N1` [Compound B3, (S)-3-(5′-fluoro-6′-oxo-6′,8′-dihydro-3′H,7′H-spiro[piperidine-4,2′-[1,4]dioxino[2,3-f]isoindol]-7′-yl)piperidine-2,6-dione] was 1730 nM; that for `O=C1CC[C@H](N2Cc3cc4c(cc3C2=O)OCC2(CNC2)O4)C(=O)N1` [Compound B4, (S)-3-(6′-oxo-6′,8′-dihydro-3′H,7′H-spiro[azetidine-3,2′-[1,4]dioxino[2,3-f]isoindol]-7′-yl)piperidine-2,6-dione] was 4330 nM.
Still for that read-out and setting: the value for `O=C1CCC(N2C(=O)c3cc4c(cc3C2=O)OC2(CNC2)CO4)C(=O)N1` (stereo not drawn) [Compound B5, 7′-(2,6-dioxopiperidin-3-yl)-7′-hydro-3′H,6′H-spiro[azetidine-3,2′-[1,4]dioxino[2,3-f]isoindole]-6′,8′-dione] was 4630 nM.
At ER, `O=C1CCC(N2Cc3c(ccc4c3OCC3(CN(CC5CCN(c6ccc([C@@H]7c8ccc(O)cc8CC[C@@H]7c7ccccc7)cc6)CC5)C3)O4)C2=O)C(=O)N1` (stereo partly drawn) [THP-B367] had a DC50 of over 100 nM. In the experiment on T47D cell line, this compound came in with an IC50 of 0.001 to 0.01 µM.
The corresponding values for `O=C1CCC(N2Cc3c(ccc4c3OCC3(CN(CC5CC6(CCN(c7ccc([C@@H]8c9ccc(O)cc9CC[C@@H]8c8ccccc8)cc7)CC6)C5)C3)O4)C2=O)C(=O)N1` (stereo partly drawn) [THP-B368] are over 100 nM and 0.001 to 0.01 µM.
The corresponding values for `O=C1CC[C@H](N2Cc3c(ccc4c3OCC3(CCN(CC5CCN(c6ccc([C@@H]7c8ccc(O)cc8CC[C@@H]7c7ccccc7)cc6)CC5)CC3)O4)C2=O)C(=O)N1` [THP-B369] are 10 to 100 nM and under 0.001 µM.
The corresponding values for `O=C1CC[C@H](N2Cc3c(ccc4c3OCC3(CCN(CC5CC6(CCN(c7ccc([C@@H]8c9ccc(O)cc9CC[C@@H]8c8ccccc8)cc7)CC6)C5)CC3)O4)C2=O)C(=O)N1` [THP-B371] are under 10 nM and under 0.001 µM.
On ER, `O=C1CC[C@H](N2Cc3c(ccc4c3OCC3(CCN(CC5CCC6(CCN(c7ccc([C@@H]8c9ccc(O)cc9CC[C@@H]8c8ccccc8)cc7)CC6)O5)CC3)O4)C2=O)C(=O)N1` (stereo partly drawn) [THP-B372] showed a DC50 of 10 to 100 nM. Moreover, in the experiment with T47D cell line, the IC50 lay within 0.001 to 0.01 µM.
The corresponding values for `O=C1CC[C@H](N2Cc3c(ccc4c3OCC3(CCN(CC5COC6(CCN(c7ccc([C@@H]8c9ccc(O)cc9CC[C@@H]8c8ccccc8)cc7)CC6)C5)CC3)O4)C2=O)C(=O)N1` (stereo partly drawn) [THP-B373] are under 10 nM and under 0.001 µM.
The corresponding values for `O=C1CC[C@H](N2Cc3c(ccc4c3OCC3(CCN(CC5COC6(CCN(c7ccc([C@@H]8c9ccc(O)cc9CC[C@@H]8c8ccccc8)cc7)CC6)OC5)CC3)O4)C2=O)C(=O)N1` [THP-B374] are under 10 nM and under 0.001 µM.
The corresponding values for `O=C1CCC(N2Cc3c(ccc4c3OCC3(CN(CC5CCC6(CC5)CN(c5ccc([C@@H]7c8ccc(O)cc8CC[C@@H]7c7ccccc7)cc5)C6)C3)O4)C2=O)C(=O)N1` (stereo partly drawn) [THP-B376] are 10 to 100 nM and under 0.001 µM.
Consider `O=C1CCC(N2Cc3c(ccc4c3OCC3(CN(CC5COC6(CCN(c7ccc([C@@H]8c9ccc(O)cc9CC[C@@H]8c8ccccc8)cc7)CC6)OC5)C3)O4)C2=O)C(=O)N1` (stereo partly drawn) [THP-B377], for which, on ER, the DC50 lay within 10 to 100 nM. For the same compound, in the experiment with T47D cell line, the IC50 is under 0.001 µM.
In turn, `O=C1CC[C@H](N2Cc3cc4c(c(F)c3C2=O)OCC2(CCN(CC3CCN(c5ccc([C@@H]6c7ccc(O)cc7CC[C@@H]6c6ccccc6)cc5)CC3)CC2)O4)C(=O)N1` [THP-B383, (S)-3-(5′-fluoro-1-((1-(4-((1R,2S)-6-hydroxy-2-phenyl-1,2,3,4-tetrahydronaphthalen-1-yl)phenyl)piperidin-4-yl)methyl)-6′-oxo-6′,8′-dihydro-3′H,7′H-spiro[piperidine-4,2′-[1,4]dioxino[2,3-f]isoindol]-7′-yl)piperidine-2,6-dione] registered a DC50 at ER of over 100 nM. The compound further came in with an IC50 with T47D cell line of over 0.01 µM.
The corresponding values for `O=C1CC[C@H](N2Cc3cc4c(c(F)c3C2=O)OCC2(CCN(CC3CC5(CCN(c6ccc([C@@H]7c8ccc(O)cc8CC[C@@H]7c7ccccc7)cc6)CC5)C3)CC2)O4)C(=O)N1` [THP-B384] are over 100 nM and 0.001 to 0.01 µM.
The corresponding values for `O=C1CCC(N2C(=O)c3cc4c(cc3C2=O)OC2(CO4)CN(CC3CC4(CCN(c5ccc([C@@H]6c7ccc(O)cc7CC[C@@H]6c6ccccc6)cc5)CC4)C3)C2)C(=O)N1` (stereo partly drawn) [THP-B385] are over 100 nM and 0.001 to 0.01 µM.
The corresponding values for `O=C1CCC(N2Cc3c(ccc4c3OCC3(CN(CC5CCC6(CCN(c7ccc([C@@H]8c9ccc(O)cc9CC[C@@H]8c8ccccc8)cc7)CC6)OC5)C3)O4)C2=O)C(=O)N1` (stereo partly drawn) [THP-B386] are over 100 nM and 0.001 to 0.01 µM.
Compound `O=C1CC[C@H](N2Cc3cc4c(cc3C2=O)OCC2(CN(CC3CC5(CCN(c6ccc([C@@H]7c8ccc(O)cc8CC[C@@H]7c7ccccc7)cc6)CC5)C3)C2)O4)C(=O)N1` [THP-B394, (S)-3-(1-((7-(4-((1R,2S)-6-hydroxy-2-phenyl-1,2,3,4-tetrahydronaphthalen-1-yl)phenyl)-7-azaspiro[3.5]nonan-2-yl)methyl)-6′-oxo-6′,8′-dihydro-3′H,7′H-spiro[azetidine-3,2′-[1,4]dioxino[2,3-f]isoindol]-7′-yl)piperidine-2,6-dione] had an IC50 with T47D cell line of 0.001 to 0.01 µM.
